Results published in patent US12577469B2, “Compound, composition, cured product, optically anisotropic body, optical element, and light guide element” (FUJIFILM Corporation, priority 2021, dated 2026).

Assays:
[1] = Evaluation of solubility in cyclopentanone (precipitation concentration); type: physicochemical; settings: precipitation concentration in cyclopentanone at room temperature (25° C.)
[2] = Evaluation of liquid crystallinity of compound (hot stage, polarization microscope); type: physicochemical; parameters: key: A case of having liquid crystallinity was evaluated as A; a case of having no liquid crystallinity was evaluated as B; settings: compound alone, heated on hot stage
Experimental: Each compound was heated on a hot stage and observed with a polarization microscope, and the phase transition temperature was measured to evaluate the presence or absence of liquid crystallinity. A case of having liquid crystallinity was evaluated as A, and a case of having no liquid crystallinity was evaluated as B. The results are shown in the column of “Liquid crystallinity” of “Compound 2” in Table 1.

Compound	Compound 2 Solubility [1]	Compound 2 Liquid crystallinity [2]
CC(=O)OCCc1ccc(C#Cc2ccc(OCc3ccc(C#Cc4ccc(COc5ccc(C#Cc6ccc(CCOC(C)=O)cc6)cc5C)cc4)cc3)c(C)c2)cc1 [Compound B-1]	B (the solubility in a case where the precipitation concentration was 5% by mass or less was evaluated as B)	A
C=CC(=O)OCCc1ccc(C#Cc2ccc(OCc3ccc(C#Cc4ccc(COc5ccc(C#Cc6ccc(CCOC(=O)C=C)cc6)cc5C)cc4)cc3)c(C)c2)cc1 [Compound B-2]	B (the solubility in a case where the precipitation concentration was 5% by mass or less was evaluated as B)	A
C=CC(=O)OCCSc1ccc(C#Cc2ccc(OCc3ccc(C#Cc4ccc(COc5ccc(C#Cc6ccc(SCCOC(=O)C=C)cc6)cc5C)cc4)cc3)c(C)c2)cc1 [Compound B-3]	B (the solubility in a case where the precipitation concentration was 5% by mass or less was evaluated as B)	A
C=CC(=O)OCCSc1ccc(C#Cc2ccc(OCc3ccc(C#Cc4ccc(COc5ccc(C#Cc6ccc(SCCOC(=O)C=C)cc6)cc5C(=O)OC)cc4)cc3)c(C(=O)OC)c2)cc1 [Compound B-4]	A (the solubility in a case where the precipitation concentration was more than 5% by mass was evaluated as A)	A
